The values that follow come from US20250250545A1, “MSCS AND EXTRACELLULAR VESICLES” (EXOSTEM BIOTEC LTD., priority 2021, published 2025).

For this assay, the system named is AD-MSCs. Put plainly: MyoD reporter (luciferase) in AD-MSCs, myogenic differentiation. It is filed as cell-based, human. The conditions noted are these: 10^8 EVs per ml, with or without IGF, HGF, PDGF, versus untreated control. As to the method: The effects of muscle cell derived extracellular vesicles (EVs) on the myogenic differentiation of MSCs was analyzed using a myoD reporter tagged to luciferase. Human satellite cells, myotubes and fibroblasts were grown in culture and EVs were isolated from each. MSCs were isolated from adipose tissue (AD-MSCs) and were transfected with the MyoD reporter. The cells grown in culture were treated with EVs (10^8/ml) for 5 days and the luciferase activity was determined. […] Thus, the vesicles from these two cell types are effective at inducing myogenic differentiation.
Next, EVs were compared to the use of growth factors and the effect of combining EVs with growth factors on myogenic differentiation was tested. The same MyoD reporter was employed and MSCs were cultured with 10^8 EVs (from satellite cells or fibroblasts) per ml of culture media. A no EV control was also performed. The EVs were also added in the presence of three different growth factors, IGF, HGF and PDGF or in the combined presence of all three growth factors. […]
Finally, human primary myotubes were growth in culture and EVs and membrane-bound vesicles (MBVs) were harvested every 3 days. […] The vesicles were added to the culture of MSCs (adipose derived, AD; or chorionic placenta derived, CH) at a concentration of 10^8 per ml of culture and myogenic differentiation was again monitored with a MyoD reporter. […]

Turning to PDGF, the MyoD reporter activity entry is recorded as “less than a doubling of reporter activity”.

With HGF: hepatocyte growth factor, the MyoD reporter activity entry was “less than a doubling of reporter activity”.
